Source: patent publication US9062070B2, “Inhibitors of the renal outer medullary potassium channel” (Merck Sharp & Dohme Corp., priority 2011, dated 2015)

How the values were obtained:
Kir1.1 (ROMK1) = Kir1.1 (ROMK1) (Homo sapiens (Human), UniProt P48048); experiment: Electrophysiology Assay (whole cell voltage clamp, IonWorks Quattro); assay type: cell-based; conditions: Chinese hamster ovary cells stably expressing Kir1.1; block during voltage step to 0 mV
Experimental: Block of Kir1.1 (ROMK1) currents was examined by whole cell voltage clamp (Hamill et. al. […] Prior to an experiment, Kir1.1 expression was induced by overnight incubation with 1 mM sodium butyrate. […] After centrifugation, the cell pellet was resuspended in approximately 4.0 mL of bath solution and placed in the IonWorks instrument. The intracellular solution consisted of (in mM): 80 K gluconate, 40 KCl, 20 KF, 3.2 MgCl2, 3 EGTA, 5 Hepes, pH 7.4. […] Amphotericin B (Sigma A-4888) was prepared as a 40 mg/mL solution in DMSO. Voltage protocols and current recordings were performed using the IonWorks HT software/hardware system. […] No correction for liquid junction potentials was used. The test pulse, consisting of a 100 ms step to 0 mV from a holding potential of −70 mV, followed by a 100 ms voltage ramp from −70 mV to +70 mV, was applied before and after a 6 min compound incubation period. Test compounds were prepared by diluting DMSO stock solutions into the bath solution at 3× the final concentration and placed in the instrument in 96-well polypropylene plates. Current amplitudes were measured using the IonWorks software. To assess compound potency, the fractional block during the voltage step to 0 mV was calculated in Microsoft Excel (Microsoft, Redmond, Calif.), and dose-response curves were fitted with Igor Pro 4.0 (WaveMetrics, Lake Oswego, Oreg.).

hROMK (hKir1.1) = hROMK (hKir1.1) (Homo sapiens (Human), UniProt P48048); experiment: Thallium Flux Assay (ROMK channel functional thallium flux, FLIPR-Tetra); assay type: cell-based; conditions: HEK293 cells stably expressing hROMK (hKir1.1)
Chain of hROMK (hKir1.1) (P48048 whole entry): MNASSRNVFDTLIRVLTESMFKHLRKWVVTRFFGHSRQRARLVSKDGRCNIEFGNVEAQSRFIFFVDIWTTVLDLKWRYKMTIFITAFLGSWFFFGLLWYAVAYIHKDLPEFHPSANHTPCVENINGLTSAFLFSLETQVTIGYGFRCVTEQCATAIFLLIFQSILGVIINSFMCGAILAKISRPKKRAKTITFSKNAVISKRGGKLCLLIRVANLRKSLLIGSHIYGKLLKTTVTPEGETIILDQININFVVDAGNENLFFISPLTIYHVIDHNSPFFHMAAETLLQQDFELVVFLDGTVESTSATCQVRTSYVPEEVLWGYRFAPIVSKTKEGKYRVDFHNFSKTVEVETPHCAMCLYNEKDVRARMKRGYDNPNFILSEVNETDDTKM
Experimental: HEK293 cells stably expressing hROMK (hKir1.1) were grown at 37° C. in a 10% CO2 humidified incubator in complete growth media: Dulbecco's Modified Eagle Medium supplemented with non-essential amino acids, Penicillin/Streptomycin/Glutamine, G418 and FBS. At >80% confluency, aspirate the media from the flask and rinse with 10 mL Calcium/Magnesium-free PBS. Add 5 mL of 1× trypsin (prepared in Ca/Mg Free PBS) to T-225 flask and return flask to 37° C./CO2 incubator for 2-3 minutes. To dislodge the cell, gently bang the side of the flask with your hand. Triturate the cells completely and then transfer the cells to 25 mL complete media. Centrifuge at 1,500 rpm for 6 min followed by resuspension in complete growth media and determine cell concentration. For typical re-seeding, 4E6 cells/T-225 flask will attain>80% confluency in 4 days. Under ideal growth conditions and appropriate tissue culture practices, this cell line is stable for 40-45 passages.
• FluxOR™ Reagent (Component A) • FluxOR™ Assay Buffer (Component B)—10× Concentrate • PowerLoad™ Concentrate (Component C)—100× Concentrate • Probenecid (Component D)—Lyophilized sample is kept at −20° C. Water soluble, 100× after solubilization in 1 mL water. Store at 4° C. • FluxOR™ Chloride-free Buffer (Component E)—5× Concentrate • Potassium sulfate (K2SO4) Concentrate (Component F)—125 mM in water. Store at 4° C. • Thallium sulfate (Tl2SO4) Concentrate (Component G)—50 mM in water. Store at 4° C. • DMSO (dimethyl sulfoxide, Component H)—1 mL (100%) Reagent Preparation: FluxOR Working Solutions • 1000× FluxOR™ Reagent: Reconstitute a vial of component A in 100 μl DMSO; Mix well; Store 10 μl aliquots at −20° C. • 1× FluxOR™ Assay Buffer: Dilute Component B 10-fold with water; Adjust pH to 7.4 with Hepes/NaOH; Filter and store at 4° C. • Probenecid/Assay Buffer: 100 mL of 1× FluxOR™ Assay Buffer; 1 mL of reconstituted component D; Store at 4° C. • Loading Buffer (per microplate): 10 μl 1000× FluxOR™ Reagent; 100 μl component C; 10 mL Probenecid/Assay Buffer • Compound Buffer (per microplate): 20 mL Probenecid/Assay Buffer; 0.3 mM ouabain (10 mM ouabain in water can be stored in amber bottle/aluminum foil at room temperature); Test compound • 1× FluxOR™ Chloride-Free Buffer: Prepare 1× working solution in water. Can be stored at room temperature • Stimulant Buffer (prepared at 5× final concentration in 1× FluxOR™ Chloride-Free Buffer): 7.5 mM Thallium sulfate and 0.75 mM Potassium sulfate (to give a final assay concentration of 3 mM Thallium/0.3 mM Potassium). Store at 4° C. when not in use. If kept sterile, this solution is good for months. Assay Protocol—
The ROMK channel functional thallium flux assay is performed in 384 wells, using the FLIPR-Tetra instrument. HEK-hKir1.1 cells are seeded in Poly-D-Lysine microplates and kept in a 37° C.-10% CO2 incubator overnight. On the day of the experiment, the growth media is replaced with the FluxOR™ reagent loading buffer and incubated, protected from light, at ambient temperature (23-25° C.) for 90 min. The loading buffer is replaced with assay buffer±test compound followed by 30 min incubation at ambient temperature, where the Thallium/Potassium stimulant is added to the microplate.
• 1. Seed HEK-hKir1.1 cells (50 μl at 20,000 cells/well) in 384-well PDL coated Microplates • 2. Allow cells to adhere overnight in humidified 37° C./10% CO2 incubator • 3. Completely remove cell growth media from microplate and replace with 25 μl loading buffer • 4. Incubate Microplate at room temperature, protected form light, for 90 min • 5. Remove loading buffer and replace with 25 μl 1× Assay Buffer±test compound. • 6. Incubate microplate at room temperature, protected form light, for 30 min • 7. At FLIPR-Tetra 384: Add stimulant (Thallium/Potassium) solution to microplate and monitor fluorescence. Excitation=400 nm, Emission=460 & 580 nm. Collect data for ˜10 min. Data Calculation—

Chain of Kir1.1 (ROMK1) (P48048 whole entry): as above

SMILES | IC50 (Kir1.1 (ROMK1)) | IC50 (hROMK (hKir1.1))
Cc1c([C@@H]2CN3CCN(C(=O)C4CCc5nc(-n6cnnn6)ncc54)C[C@@H]3CO2)ccc(F)c1C#N (single isomer, unassigned) [Example 2C] | 150 nM | 120 nM
Cc1c([C@@H]2CN3CCN(C(=O)C4CCc5nc(-n6cnnn6)ncc54)C[C@@H]3CO2)ccc(F)c1C#N (single isomer, unassigned) [Example 2D] | 100 nM | 130 nM
Cc1c([C@@H]2CN3CCN(C(=O)C4CCc5nc(-n6cnnn6)ncc54)C[C@H]3CO2)ccc(F)c1C#N (single isomer, unassigned) [Example 2E] | – | 130 nM
Cc1c([C@@H]2CN3CCN(C(=O)C4CCc5nc(-n6cnnn6)ncc54)C[C@H]3CO2)ccc(F)c1C#N (single isomer, unassigned) [Example 2F] | – | 390 nM
Cc1c([C@H]2CN3CCN(C(=O)C4CCc5nc(-n6cnnn6)ncc54)C[C@H]3CO2)ccc(F)c1C#N (single isomer, unassigned) [Example 2G] | 130 nM | 270 nM
Cc1c([C@H]2CN3CCN(C(=O)C4CCc5nc(-n6cnnn6)ncc54)C[C@H]3CO2)ccc(F)c1C#N (single isomer, unassigned) [Example 2H] | 100 nM | 140 nM
Cc1c([C@H]2CN3CCN(C(=O)C4CCc5cc(-n6cnnn6)ncc54)C[C@H]3CO2)ccc(F)c1C#N (single isomer, unassigned) [Example 35] | 110 nM | 180 nM
Cc1c([C@@H]2CN3CCN(C(=O)C4CCc5cc(-n6cnnn6)ncc54)C[C@H]3CN2)ccc(F)c1C#N (single isomer, unassigned) [Example 96A] | 100 nM | 200 nM
Cc1c([C@@H]2CN3CCN(C(=O)C4CCc5cc(-n6cnnn6)ncc54)C[C@H]3CN2)ccc(F)c1C#N (single isomer, unassigned) [Example 96B] | > 1000 nM | > 1000 nM
Cc1c(C2CN3CCN(C(=O)[C@H]4CCc5nc(-n6cnnn6)ncc54)C[C@@H]3CO2)ccc(F)c1C#N (stereo in doubt) [Example 2A, 6-Fluoro-2-methyl-3-[(3S,9aR)-8-{[(5S)-2-(1H-tetrazol-1-yl)-6,7-dihydro-5H-cyclopenta[d]pyrimidin-5-yl]carbonyl}octahydropyrazino[2,1-c][1,4]oxazin-3-yl]benzonitrile] | 100 nM | 220 nM
Cc1c([C@H]2CN3CCN(C(=O)[C@@H]4CCc5nc(-n6cnnn6)ncc54)C[C@@H]3CO2)ccc(F)c1C#N [Example 2B, 6-fluoro-2-methyl-3-[(3S,9aR)-8-{[(5R)-2-(1H-tetrazol-1-yl)-6,7-dihydro-5H-cyclopenta[d]pyrimidin-5-yl]carbonyl}octahydropyrazino[2,1-c][1,4]oxazin-3-yl]benzonitrile] | 100 nM | 350 nM
Cc1c([C@H]2CN3CCN(C(=O)C4CCc5nc(-n6cnnn6)ncc54)C[C@H]3CO2)ccc2c1COC2=O (some centres unmarked) [Example 3] | 530 nM | 250 nM
Cc1c([C@H]2CN3CCN(C(=O)C4CCc5nc(-n6cnnn6)ccc54)C[C@H]3CO2)ccc(F)c1C#N (some centres unmarked) [Example 4] | 180 nM | 460 nM
Cc1c([C@H]2CN3CCN(C(=O)C4CCc5nc(-n6cnnn6)ccc54)C[C@H]3CO2)ccc(F)c1C#N (some centres unmarked) [Example 5] | 100 nM | 170 nM
Cc1c([C@@H]2CN3CCN(C(=O)C4CCc5nc(-n6cnnn6)ccc54)C[C@H]3CO2)ccc(F)c1C#N (some centres unmarked) [Example 6] | 100 nM | 240 nM
Cc1c([C@@H]2CN3CCN(C(=O)C4CCc5nc(-n6cnnn6)ccc54)C[C@H]3CO2)ccc(F)c1C#N (some centres unmarked) [Example 7] | 80 nM | 140 nM
Cc1c([C@H]2CN3CCN(C(=O)C4CCCc5nc(-n6cnnn6)ccc54)C[C@H]3CO2)ccc(F)c1C#N (some centres unmarked) [Example 8] | 240 nM | 350 nM
Cc1c([C@H]2CN3CCN(C(=O)C4CCCc5nc(-n6cnnn6)ccc54)C[C@H]3CO2)ccc(F)c1C#N (some centres unmarked) [Example 9] | 190 nM | 610 nM
Cc1c([C@@H]2CN3CCN(C(=O)C4CCCc5nc(-n6cnnn6)ccc54)C[C@H]3CO2)ccc(F)c1C#N (some centres unmarked) [Example 10] | 180 nM | 410 nM
Cc1c([C@@H]2CN3CCN(C(=O)C4CCCc5nc(-n6cnnn6)ccc54)C[C@H]3CO2)ccc(F)c1C#N (some centres unmarked) [Example 11] | 240 nM | 360 nM
Cc1c([C@@H]2CN3CCN(C(=O)C4CCCc5nc(-n6cnnn6)ccc54)C[C@@H]3CO2)ccc(F)c1C#N (some centres unmarked) [Example 12] | 160 nM | 450 nM
Cc1c([C@H]2CN3CCN(C(=O)C4CCCc5nc(-n6cnnn6)ccc54)C[C@@H]3CO2)ccc(F)c1C#N (some centres unmarked) [Example 13] | 260 nM | 320 nM
O=C1OCCc2cc([C@@H]3CN4CCN(C(=O)C5CCCc6nc(-n7cnnn7)ccc65)C[C@H]4CO3)ccc21 (some centres unmarked) [Example 14] | 210 nM | 470 nM
Cc1c([C@@H]2CN3CCN(C(=O)C4CCc5nc(-n6cnnn6)ccc54)C[C@H]3CO2)csc1C#N (some centres unmarked) [Example 15] | 60 nM | 540 nM
N#Cc1c(F)ccc([C@@H]2CN3CCN(C(=O)C4CCc5nc(-n6cnnn6)ccc54)C[C@H]3CO2)c1F (some centres unmarked) [Example 18] | 110 nM | 400 nM
N#Cc1c(F)ccc([C@H]2CN3CCN(C(=O)C4CCc5nc(-n6cnnn6)ccc54)C[C@H]3CO2)c1F (some centres unmarked) [Example 19] | 90 nM | 420 nM
Cc1c(C#N)cccc1[C@@H]1CN2CCN(C(=O)C3CCc4nc(-n5cnnn5)ccc43)C[C@H]2CO1 (some centres unmarked) [Example 71] | 120 nM | –
Cc1c(C#N)cccc1[C@@H]1CN2CCN(C(=O)C3CCc4cc(-n5cnnn5)ncc43)C[C@@H]2CO1 (some centres unmarked) [Example 94] | – | 290 nM
O=C1OCc2c1ccc([C@@H]1CN3CCN(C(=O)C4CCc5nc(-n6cnnn6)ccc54)C[C@H]3CO1)c2C1CC1 (some centres unmarked) [Example 95] | – | 180 nM
